Here are results for 1 compound from paper PMC7049213, “Nerylneryl diphosphate is the precursor of serrulatane, viscidane and cembrane-type diterpenoids in Eremophila species” (BMC Plant Biology, 2020).

Experiment in all cases: co-expression with SlCPT2 in E. coli and N. benthamiana, GC-MS
What all share (assay type): cell-based
What all share (details): NNPP formed in cells by SlCPT2; E. coli 18 °C, 48 h

The target of assay [1] is T1, EdTPS22 (Eremophila drummondii, UniProt A0A6G9KSU3).
T1 construct: full length in N. benthamiana; TPS-a class I
T1 sequence (A0A6G9KSU3 entry or part of it): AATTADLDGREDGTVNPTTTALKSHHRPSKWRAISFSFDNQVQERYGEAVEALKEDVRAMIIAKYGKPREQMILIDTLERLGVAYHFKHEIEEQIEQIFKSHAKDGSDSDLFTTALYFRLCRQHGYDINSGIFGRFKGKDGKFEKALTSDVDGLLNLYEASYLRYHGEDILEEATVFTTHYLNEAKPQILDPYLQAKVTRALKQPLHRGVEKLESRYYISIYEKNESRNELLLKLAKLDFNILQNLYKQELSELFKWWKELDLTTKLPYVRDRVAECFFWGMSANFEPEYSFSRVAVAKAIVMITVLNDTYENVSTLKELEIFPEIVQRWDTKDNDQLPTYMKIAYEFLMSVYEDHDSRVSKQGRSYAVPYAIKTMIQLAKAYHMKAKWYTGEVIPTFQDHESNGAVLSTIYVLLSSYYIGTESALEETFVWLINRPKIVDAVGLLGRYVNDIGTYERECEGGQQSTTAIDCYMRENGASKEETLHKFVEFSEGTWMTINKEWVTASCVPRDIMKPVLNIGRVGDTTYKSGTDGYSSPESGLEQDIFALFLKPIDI

Assay [2] has as its target T2, ElTPS31 (Eremophila lucida, UniProt A0A6G9KSS8).
T2 construct: full length in N. benthamiana; TPS-b class I

Assay [3] has as its target T3, ElTPS3 (Eremophila lucida, UniProt A0A6G9KVC7).
T3 construct: full length in N. benthamiana; TPS-a class I

For assay [4], the target named is T4, EdtTPS4 (Eremophila denticulata, UniProt A0A6G9KV06).
T4 construct: full length in N. benthamiana; TPS-a class I
T4 sequence (A0A6G9KV06 entry or part of it): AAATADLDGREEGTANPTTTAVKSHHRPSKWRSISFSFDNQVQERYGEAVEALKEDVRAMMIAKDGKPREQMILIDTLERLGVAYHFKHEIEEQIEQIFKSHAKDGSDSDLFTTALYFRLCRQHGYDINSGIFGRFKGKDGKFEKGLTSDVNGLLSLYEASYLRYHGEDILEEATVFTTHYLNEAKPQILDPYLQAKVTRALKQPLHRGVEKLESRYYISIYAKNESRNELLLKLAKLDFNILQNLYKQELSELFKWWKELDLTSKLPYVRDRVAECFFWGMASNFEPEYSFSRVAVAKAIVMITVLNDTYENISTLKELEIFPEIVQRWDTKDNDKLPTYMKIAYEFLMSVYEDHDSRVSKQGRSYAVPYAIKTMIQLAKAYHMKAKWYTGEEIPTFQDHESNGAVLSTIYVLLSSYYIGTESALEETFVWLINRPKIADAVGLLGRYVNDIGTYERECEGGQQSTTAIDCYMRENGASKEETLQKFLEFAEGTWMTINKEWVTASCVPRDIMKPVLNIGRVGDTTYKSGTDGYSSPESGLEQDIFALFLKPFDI

T3 sequence (A0A6G9KVC7 entry or part of it): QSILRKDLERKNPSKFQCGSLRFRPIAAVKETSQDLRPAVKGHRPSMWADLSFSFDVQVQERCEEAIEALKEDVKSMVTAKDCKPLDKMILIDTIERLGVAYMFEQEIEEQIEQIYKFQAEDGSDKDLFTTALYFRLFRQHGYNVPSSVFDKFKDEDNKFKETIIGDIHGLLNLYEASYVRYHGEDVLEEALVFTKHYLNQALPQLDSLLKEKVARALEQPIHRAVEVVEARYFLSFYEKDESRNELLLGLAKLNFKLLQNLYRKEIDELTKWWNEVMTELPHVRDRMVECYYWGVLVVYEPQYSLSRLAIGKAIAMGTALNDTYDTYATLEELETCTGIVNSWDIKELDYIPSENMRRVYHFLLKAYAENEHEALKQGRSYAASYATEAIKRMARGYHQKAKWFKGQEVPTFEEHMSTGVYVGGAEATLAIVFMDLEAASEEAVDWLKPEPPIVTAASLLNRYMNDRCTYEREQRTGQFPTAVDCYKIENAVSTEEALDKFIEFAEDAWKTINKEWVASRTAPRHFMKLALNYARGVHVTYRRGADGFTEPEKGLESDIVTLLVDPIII
T2 sequence (A0A6G9KSS8 entry or part of it): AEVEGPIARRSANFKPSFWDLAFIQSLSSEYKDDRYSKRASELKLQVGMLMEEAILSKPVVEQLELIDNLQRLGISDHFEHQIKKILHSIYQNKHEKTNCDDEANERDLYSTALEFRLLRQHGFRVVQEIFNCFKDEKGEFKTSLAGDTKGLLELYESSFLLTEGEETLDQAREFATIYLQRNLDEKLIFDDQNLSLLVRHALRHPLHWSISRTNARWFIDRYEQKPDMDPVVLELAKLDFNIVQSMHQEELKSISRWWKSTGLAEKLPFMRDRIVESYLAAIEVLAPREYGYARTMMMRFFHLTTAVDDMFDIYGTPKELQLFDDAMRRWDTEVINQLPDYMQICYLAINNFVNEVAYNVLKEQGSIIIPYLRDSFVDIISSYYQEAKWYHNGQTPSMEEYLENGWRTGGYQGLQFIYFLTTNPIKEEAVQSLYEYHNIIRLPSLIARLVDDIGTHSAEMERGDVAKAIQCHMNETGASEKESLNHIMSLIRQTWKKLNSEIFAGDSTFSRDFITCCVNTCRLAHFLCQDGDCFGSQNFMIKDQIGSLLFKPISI

Consider `CC(C)=CCC/C(C)=C\CC/C(C)=C\CC/C(C)=C\COP(=O)(O)OP(=O)(O)O` [nerylneryl diphosphate], for which the “co-expression with SlCPT2 in E. coli and N. benthamiana, GC-MS” value in assay [1] was “co-expression of either one of ElTPS3, ElTPS31, EdtTPS4 or EdTPS22 with NNPP-forming SlCPT2”; in assay [2], “co-expression of either one of ElTPS3, ElTPS31, EdtTPS4 or EdTPS22 with NNPP-forming SlCPT2”; in assay [3], “co-expression of either one of ElTPS3, ElTPS31, EdtTPS4 or EdTPS22 with NNPP-forming SlCPT2”; in assay [4], “co-expression of either one of ElTPS3, ElTPS31, EdtTPS4 or EdTPS22 with NNPP-forming SlCPT2”.
